# In US20250230193A1, “CYCLIC COMPOUND HAVING SELECTIVE KRAS INHIBITORY EFFECT ON HRAS AND NRAS” (CHUGAI SEIYAKU KABUSHIKI KAISHA, priority 2022, published 2025):
# Legend:
# [1] = target: GDP-bound NRAS wild-type protein (Homo sapiens, UniProt P01111); experiment: Binding to NRAS by surface plasmon resonance (SPR), Single Cycle Kinetics; conditions: KD ratio NRAS/KRAS, SPR
# [2] = target: GDP-bound HRAS wild-type protein (Homo sapiens, UniProt P01112); experiment: Binding to HRAS by surface plasmon resonance (SPR), Single Cycle Kinetics; conditions: KD ratio HRAS/KRAS, SPR
# Sequence of GDP-bound HRAS wild-type protein (P01112 whole entry): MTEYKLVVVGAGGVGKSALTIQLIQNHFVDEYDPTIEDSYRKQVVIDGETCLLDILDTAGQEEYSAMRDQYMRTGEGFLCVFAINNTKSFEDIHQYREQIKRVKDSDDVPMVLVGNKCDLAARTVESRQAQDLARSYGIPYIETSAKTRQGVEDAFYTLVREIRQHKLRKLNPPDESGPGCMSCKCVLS
# Sequence of GDP-bound NRAS wild-type protein (P01111 whole entry): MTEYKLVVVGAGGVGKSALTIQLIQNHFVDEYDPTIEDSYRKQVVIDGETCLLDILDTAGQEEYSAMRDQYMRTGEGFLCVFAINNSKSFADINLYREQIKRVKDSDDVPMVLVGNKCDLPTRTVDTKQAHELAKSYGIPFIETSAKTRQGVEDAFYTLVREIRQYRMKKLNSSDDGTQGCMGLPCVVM
SMILES,NRAS/KRAS (ratio of KD value with respect to GDP-bound NRAS wild-type protein to KD value with respect to KRAS) [1],HRAS/KRAS (ratio of KD value with respect to GDP-bound HRAS wild-type protein to KD value with respect to KRAS) [2]
CC[C@H](C)[C@@H]1NC(=O)[C@@H]2CCCCCN2C(=O)C[C@@H](C(=O)N2CCOCC2)N(C)C(=O)[C@H](C2CCCC2)N(C)C(=O)C2(CCCC2)NC(=O)[C@@H]2CCCN2C(=O)[C@H](CCc2cc(F)c(C(F)(F)F)c(F)c2)NC(=O)CN(C)C(=O)[C@H](Cc2ccc(C(F)(F)F)cc2)N2CCCC[C@@H](C2=O)N(C)C(=O)CN(C)C1=O [PP0595],C (A compound having a KD ratio of 0.1 or more and less than 3 is denoted as C),B (a compound having 3 or more and less than 10 is denoted as B)
CC(C)C[C@H]1C(=O)N[C@@H](C2CCC2)C(=O)N(C)CC(=O)N(C)[C@H]2CCCCN(C2=O)[C@@H](Cc2ccc(C(F)(F)F)cc2)C(=O)N(C)CC(=O)N[C@@H](CCc2cc(F)c(C(F)(F)F)c(F)c2)C(=O)N2CCC[C@H]2C(=O)NC2(CCCC2)C(=O)N(C)[C@@H](C2CCCC2)C(=O)N(C)[C@H](C(=O)N2CCOCC2)CC(=O)N1C [PP0596],B (a compound having 3 or more and less than 10 is denoted as B),B (a compound having 3 or more and less than 10 is denoted as B)
CCC(CC)[C@@H]1NC(=O)[C@H](CC(C)C)N(C)C(=O)C[C@@H](C(=O)N2CCOCC2)N(C)C(=O)[C@H](C2CCCC2)N(C)C(=O)C2(CCCC2)NC(=O)[C@@H]2CCCN2C(=O)[C@H](CCc2cc(F)c(C(F)(F)F)c(F)c2)NC(=O)CN(C)C(=O)[C@H](Cc2ccc(C(F)(F)F)cc2)N2CCCC[C@@H](C2=O)N(C)C(=O)CN(C)C1=O [PP0597],B (a compound having 3 or more and less than 10 is denoted as B),B (a compound having 3 or more and less than 10 is denoted as B)
CC[C@H](C)[C@@H]1NC(=O)[C@H](CC(C)C)N(C)C(=O)C[C@@H](C(=O)N2CCOCC2)N(C)C(=O)[C@H](C2CCCC2)N(C)C(=O)C2(CCCC2)NC(=O)[C@@H]2CCCN2C(=O)[C@H](CCc2ccc(C(F)(F)F)c(Cl)c2)NC(=O)CN(C)C(=O)[C@H](Cc2ccc(F)cc2)N2C/C=C\CC[C@@H](C2=O)N(C)C(=O)CN(C)C1=O [PP0607],C (A compound having a KD ratio of 0.1 or more and less than 3 is denoted as C),B (a compound having 3 or more and less than 10 is denoted as B)
CC[C@H](C)[C@@H]1NC(=O)[C@H](CC(C)C)N(C)C(=O)C[C@@H](C(=O)N2CCOCC2)N(C)C(=O)[C@H](C2CCCC2)N(C)C(=O)C2(CCCC2)NC(=O)[C@@H]2CCCN2C(=O)[C@H](CCc2ccc(C(F)(F)F)c(Cl)c2)NC(=O)CN(C)C(=O)[C@H](Cc2ccc(Cl)cc2)N2C/C=C\CC[C@@H](C2=O)N(C)C(=O)CN(C)C1=O [PP0608],C (A compound having a KD ratio of 0.1 or more and less than 3 is denoted as C),B (a compound having 3 or more and less than 10 is denoted as B)
CC[C@H](C)[C@@H]1NC(=O)[C@H](CC(C)C)N(C)C(=O)C[C@@H](C(=O)N2CCOCC2)N(C)C(=O)[C@H](C2CCCC2)N(C)C(=O)C2(CCCC2)NC(=O)[C@@H]2CCCN2C(=O)[C@H](CCc2ccc(C(F)(F)F)c(Cl)c2)NC(=O)CN(C)C(=O)[C@H](Cc2ccc(OC)cc2)N2C/C=C\CC[C@@H](C2=O)N(C)C(=O)CN(C)C1=O [PP0609],B (a compound having 3 or more and less than 10 is denoted as B),B (a compound having 3 or more and less than 10 is denoted as B)
CC[C@H](C)[C@@H]1NC(=O)[C@H](CC(C)C)N(C)C(=O)C[C@@H](C(=O)N2CCOCC2)N(C)C(=O)[C@H](C2CCCC2)N(C)C(=O)C2(CCCC2)NC(=O)[C@@H]2CCCN2C(=O)[C@H](CCc2ccc(C(F)(F)F)c(Cl)c2)NC(=O)CN(C)C(=O)[C@H](Cc2ccc(OC(F)(F)F)cc2)N2C/C=C\CC[C@@H](C2=O)N(C)C(=O)CN(C)C1=O [PP0610],B (a compound having 3 or more and less than 10 is denoted as B),B (a compound having 3 or more and less than 10 is denoted as B)
CC[C@H](C)[C@@H]1NC(=O)[C@H](CC(C)C)N(C)C(=O)C[C@@H](C(=O)N2CCOCC2)N(C)C(=O)[C@H](C2CCCC2)N(C)C(=O)C2(CCCC2)NC(=O)[C@@H]2CCCN2C(=O)[C@H](CCc2ccc(C(F)(F)F)c(Cl)c2)NC(=O)CN(C)C(=O)[C@H](Cc2ccccc2)N2CCCCC[C@@H](C2=O)N(C)C(=O)CN(C)C1=O [PP0611],B (a compound having 3 or more and less than 10 is denoted as B),B (a compound having 3 or more and less than 10 is denoted as B)
CC[C@H](C)[C@@H]1NC(=O)[C@H](CC(C)C)N(C)C(=O)C[C@@H](C(=O)N2CCOCC2)N(C)C(=O)[C@H](C2CCCC2)N(C)C(=O)C2(CCCC2)NC(=O)[C@@H]2CCCN2C(=O)[C@H](CCc2ccc(C(F)(F)F)c(Cl)c2)NC(=O)CN(C)C(=O)[C@H](Cc2ccc(F)cc2)N2CCCCC[C@@H](C2=O)N(C)C(=O)CN(C)C1=O [PP0612],B (a compound having 3 or more and less than 10 is denoted as B),B (a compound having 3 or more and less than 10 is denoted as B)
CC[C@H](C)[C@@H]1NC(=O)[C@H](CC(C)C)N(C)C(=O)C[C@@H](C(=O)N2CCOCC2)N(C)C(=O)[C@H](C2CCCC2)N(C)C(=O)C2(CCCC2)NC(=O)[C@@H]2CCCN2C(=O)[C@H](CCc2ccc(C(F)(F)F)c(Cl)c2)NC(=O)CN(C)C(=O)[C@H](Cc2ccc(Cl)cc2)N2CCCCC[C@@H](C2=O)N(C)C(=O)CN(C)C1=O [PP0613],B (a compound having 3 or more and less than 10 is denoted as B),B (a compound having 3 or more and less than 10 is denoted as B)
CC[C@H](C)[C@@H]1NC(=O)[C@H](CC(C)C)N(C)C(=O)C[C@@H](C(=O)N2CCOCC2)N(C)C(=O)[C@H](C2CCCC2)N(C)C(=O)C2(CCCC2)NC(=O)[C@@H]2CCCN2C(=O)[C@H](CCc2ccc(C(F)(F)F)c(Cl)c2)NC(=O)CN(C)C(=O)[C@H](Cc2ccc(OC)cc2)N2CCCCC[C@@H](C2=O)N(C)C(=O)CN(C)C1=O [PP0614],B (a compound having 3 or more and less than 10 is denoted as B),B (a compound having 3 or more and less than 10 is denoted as B)
CC[C@H](C)[C@@H]1NC(=O)[C@H](CC(C)C)N(C)C(=O)C[C@@H](C(=O)N2CCOCC2)N(C)C(=O)[C@H](C2CCCC2)N(C)C(=O)C2(CCCC2)NC(=O)[C@@H]2CCCN2C(=O)[C@H](CCc2ccc(C(F)(F)F)c(Cl)c2)NC(=O)CN(C)C(=O)[C@H](Cc2ccc(OC(F)(F)F)cc2)N2CCCCC[C@@H](C2=O)N(C)C(=O)CN(C)C1=O [PP0615],B (a compound having 3 or more and less than 10 is denoted as B),B (a compound having 3 or more and less than 10 is denoted as B)
CC[C@H](C)[C@@H]1NC(=O)[C@H](CC(C)C)N(C)C(=O)C[C@@H](C(=O)N(C)C)N(C)C(=O)[C@H](C2CCCC2)N(C)C(=O)C2(CCCC2)NC(=O)[C@@H]2CCCN2C(=O)[C@H](CCc2ccc(C(F)(F)F)c(Cl)c2)NC(=O)CN(C)C(=O)[C@H](Cc2ccc(C)cc2)N2CC=C(C)C[C@@H](C2=O)N(C)C(=O)CN(C)C1=O [PP0620],C (A compound having a KD ratio of 0.1 or more and less than 3 is denoted as C),C (A compound having a KD ratio of 0.1 or more and less than 3 is denoted as C)
CC[C@H](C)[C@@H]1NC(=O)[C@H](CC(C)C)N(C)C(=O)C[C@@H](C(=O)N(C)C)N(C)C(=O)[C@H](C2CCCC2)N(C)C(=O)C2(CCCC2)NC(=O)[C@@H]2CCCN2C(=O)[C@H](CCc2ccc(C(F)(F)F)c(Cl)c2)NC(=O)CN(C)C(=O)[C@H](Cc2ccc(C(F)(F)F)cc2)N2CC=CCOC[C@H](C2=O)N(C)C(=O)CN(C)C1=O [PP0628],C (A compound having a KD ratio of 0.1 or more and less than 3 is denoted as C),C (A compound having a KD ratio of 0.1 or more and less than 3 is denoted as C)
CC[C@H](C)[C@@H]1NC(=O)[C@H](CC(C)C)N(C)C(=O)C[C@@H](C(=O)N(C)C)N(C)C(=O)[C@H](C2CCCC2)N(C)C(=O)C2(CCCC2)NC(=O)[C@@H]2CCCN2C(=O)[C@H](CCc2ccc(C(F)(F)F)c(Cl)c2)NC(=O)CN(C)C(=O)[C@H](Cc2ccc(C)cc2)N2CC=CCOC[C@H](C2=O)N(C)C(=O)CN(C)C1=O [PP0629],B (a compound having 3 or more and less than 10 is denoted as B),C (A compound having a KD ratio of 0.1 or more and less than 3 is denoted as C)
